Like-named read-outs stand apart in the source and are kept apart here.
Key:
[1] = tested on: cisplatin resistant ovarian cancer cell lines HEY and OVCA-3 and primary cells from patients with recurrent and resistant disease; assay: Cell viability (XTT) of chemoresistant ovarian cancer cells exposed to USP14 inhibitor; format: cell-based, human; conditions: increasing concentrations, 48 hours
Method: Inhibition of USP14 selectively kills ovarian cancer cell lines resistant to cisplatin and primary ovarian cancer cells derived from patients with recurrent and chemoresistant disease. Sensitivity to inhibition of USP14 was evaluated in exponentially growing human fibroblasts, in the exponentially growing cisplatin resistant ovarian cancer cell lines HEY and OVCA-3 and in two exponentially growing primary cells derived from patient with recurrent and resistant (to carboplatin) disease. Primary cells were obtained according to a method recently described in two manuscripts.

ovarian cancer cells = assay: Active caspase-3 levels in ovarian cancer cells; format: cell-based; conditions: increasing concentrations
[2] = tested on: HEC155 endometrial cancer cell line; assay: Cell viability assay (WST-1), HEC155; format: cell-based; conditions: for IC50: HEC155, 48 hours exposure
Method: (§1) Cell viability was determined by 2,3-bis[2-methoxy-4-nitro-5-sulfophenyl]-2H-tetrazolium-5-carboxanilide inner salt assay as previously described. Briefly, cells were seeded at the concentration of 1.000 per well in 100 μL medium in 96-well plate and treated with the indicated concentrations of drugs. At the indicated time points, cells were incubated according to the manufacturer's protocol with the WST-1 labeling mixture for 2 hours. Formazan dye was quantified using a spectrophotometric plate reader to measure the absorbance at 450 nm (ELISA reader 190; Molecular Devices).
(§2) The next step was to investigate whether USP14 is a molecular target for endometrial cancer cells. To this end, the expression levels of USP14 in a panel of endometrial cancer cell lines including HEC155, EFE184 and ECC1 was first measured. These cells were chosen as they represent the most aggressive and most likely to recur endometrial cancer types. As shown in FIG. 4A (left panel), all cell lines tested expressed USP14 with HEC155 and ECC1 having the highest levels. Next. ECC1 and HEC155 endometrial cancer cells were exposed to increasing concentrations of the small-molecule inhibitor […] and the residual cell viability was measured after a period of 48 hours.
(§3) In the clinical setting, recurrent endometrial cancer is usually resistant to chemotherapy. Previous studies have reported that among endometrial cancer cell lines, HEC155 and ECC1 have the highest levels of LCAM, a marker for endometrial cancer recurrence. […] Thus, the IC50 levels for carboplatin treatment of HEC155 and ECC1 cells was measured.

[3] = tested on: ECC1 endometrial cancer cell line; assay: Cell viability assay (WST-1), ECC1; format: cell-based; conditions: for IC50: ECC1, 48 hours exposure
Method: as §1, §2, §3

[4] = tested on: ubiquitin-dependent protein degradation in ECC1 cells; assay: Western blot for accumulation of poly-ubiquitinated proteins, ECC1; format: cell-based
Method: (§4) Total cellular protein (10-20 μg) from each sample was separated by SDS-PAGE, transferred to PVDF membranes and subjected to Western blot analysis. Antibodies for Western blot analysis were obtained by the following commercial sources: anti-USP14 (Bethyl Laboratories), anti-ubiquitin (Santa Cruz Biotechnology), anti-β-actin (Sigma). Peroxidase-linked anti-mouse Immunoglobulin G and peroxidase-linked anti-rabbit Immunoglobulin G were from Amersham.
(§5) USP14 is a proteasome-associated deubiquitinating enzyme whose role is to remove ubiquitin molecules from targeted proteins prior to degradation by the 20S catalytic activities of the proteasome. […] Thus, the consequences of USP14 inhibition on ubiquitin-dependent protein degradation in endometrial cancer cells was investigated. To this end, ECC1 and HEC155 cells were exposed to 150 nM or 250 nM VLX1570, respectively, over a period of 24 hours and the effect on cellular protein ubiquitination was evaluated by Western blot analysis after 0, 2, 8 or 12 hours from drug exposure. […] Quantifications of the changes in high molecular weight ubiquitin species in each respective cell line, versus control, are given in FIGS. 5B and 5D (top panels).
(§6) Next, endometrial cancer cell lines were exposed to increasing concentrations of VLX1570 ([…] for ECC1 and HEC155, respectively) over a period of 24 hours. The effect on accumulation of poly-ubiquitinated proteins was evaluated by Western blot. […] Quantifications of the changes in high-molecular weight ubiquitin species in dose-dependent fashion are given in FIGS. 5B and 5D (bottom panels).

[5] = tested on: ubiquitin-dependent protein degradation in HEC155 cells; assay: Western blot for accumulation of poly-ubiquitinated proteins, HEC155; format: cell-based
Method: as §4, §5, §6

[6] = tested on: HEC155 endometrial cancer cells; assay: Cell cycle distribution by propidium iodide flow cytometry, HEC155; format: cell-based; conditions: HEC155, 300 nM, 24 hours
Method: (§7) Cell cycle status following treatment with drug or vehicle alone was determined via flow cytometry analysis. Specifically, cells were harvested at indicated time points and fixed in 70% ethanol on ice for 2 hours. Following washing with PBS, cells were stained with 0.1% (m/v) propidium iodide in PBS-T. Apoptosis was measured using antibodies against active Caspase-3 (BD Pharmingen) or Annexin V (BD Pharmingen) which were combined with propidium iodide staining (Sigma-Aldrich). For apoptosis assays, samples were fixed and stained according to manufacturer's instructions. Fluorescence was measured with a FACSCantoII flow cytometer (Becton Dickinson) and analyzed with FlowJo software.
(§8) The USP14 modulates levels of cell cycle regulatory proteins whose dysregulation is expected to affect the cell cycle. This is further supported by the findings showing a strong correlation between USP14 and Ki67 staining in clinical specimens of endometrial cancer. Thus, the hypothesis that inhibition of USP14 would result in endometrial cancer cells failing to progress through the cell cycle was tested. To this end, HEC155 and ECC1 endometrial cancer cells were incubated with the USP14 inhibitor VLX1570 over a period of 24 hours and the cell cycle status was analyzed by flow cytometry after staining with propidium iodide. […]

[7] = tested on: ECC1 endometrial cancer cells; assay: Cell cycle distribution by propidium iodide flow cytometry, ECC1; format: cell-based; conditions: ECC1, 300 nM, 24 hours
Method: as §7, §8

[8] = tested on: ECC1 endometrial cancer cells; assay: Apoptosis by flow cytometry (active caspase-3, Annexin V, propidium iodide), ECC1; format: cell-based
Method: as §7
(§9) Next, the fate of ECC1 and HEC155 endometrial cancer cells following VLX1570-induced cell cycle arrest was evaluated. Specifically, it was tested whether the reduction in cell viability following drug treatment is consistent with onset of apoptosis. The expression levels of active caspase-3 in control versus VLX1570 treated cells was measured. Importantly, caspase-3 is an active cell-death protease involved in the execution phase of apoptosis, where cells undergo morphological changes such as DNA fragmentation, chromatin condensation and apoptotic body formation.
(§10) Similarly, the fraction of cells taking up propidium iodide, a feature of both advanced apoptosis and necrosis, is elevated in […]. These findings support the hypothesis that pharmacological inhibition of USP14 triggers apoptosis in endometrial cancer cells.

[9] = tested on: HEC155 endometrial cancer cells; assay: Apoptosis by flow cytometry (active caspase-3, Annexin V, propidium iodide), HEC155; format: cell-based
Method: as §7, §9, §10

[10] = tested on: COV362 ovarian cancer cells; assay: Cell viability of sensitive and carboplatin-resistant COV362; format: cell-based
Method: (§11) FIG. 11. COV362 and ES-2 carboplatin-resistant clones. Residual cell viability of sensitive and resistant COV362 and ES-2 ovarian cancer cells exposed to the indicated concentrations of carboplatin over a period of 48 hours.
(§12) FIG. 12. Carboplatin resistant COV362 and ES-2 ovarian cancer cells are sensitive to USP14 inhibition. Residual cell viability of resistant COV362 and ES-2 ovarian cancer cells exposed to the indicated concentrations of the FDA approved USP14 inhibitor VLX1570 over a period of 48 hours. The structure of VLX1570 is:
(§13) Carboplatin-resistant ovarian cancer cell lines are sensitive to pharmacological inhibition of USP14. Two ovarian cancer cell lines, COV-362 and ES-2 were exposed to carboplatin according to the method described in FIG. 9 and the resulting USP14 overexpressing clones were subjected to cell viability assay to assess the extent of chemoresistance. […] Next, the sensitivity of COV362 and ES-2 resistant clones to the FDA approved USP14 inhibitor VLX1570 was determined.

[11] = tested on: ES-2 ovarian cancer cells; assay: Cell viability of sensitive and carboplatin-resistant ES-2; format: cell-based
Method: as §11, §12, §13

[12] = tested on: ECC1 endometrial cancer cell line; assay: Multi-step carboplatin chemoresistance model, ECC1; format: cell-based
Excerpt: USP14 is co-expressed with ETM makers during the multi-stage process leading to chemoresistance. Acquisition of aggressive phenotype and chemoresistance is a multi-stage process whereby the subpopulation of cells surviving drug treatment give rise to cells characterized by increased in migratory behavior, proliferation rate and chemoresistance via a transition accompanied by increase in stem cell and epithelial-mesenchymal transition (EMT) markers. This model was recapitulated in ECC1 endometrial cancer cell line and the temporal USP14 expression was evaluated during this multi-step process. Specifically. ECC1 cells were exposed to two rounds of carboplatin treatment (20 μM) over the period of two weeks. The first round resulted with approx. 60% of cell death. The second round resulted with approx. 90% of cell death. Consistent with what previously shown, the surviving population was characterized by giant, polyploidy, chemoresistant cells whose numbers remained similar over the course of the following two weeks. […] Next, the expression levels of USP14 and the EMT marker vimentin were evaluated in the initial population (chemosensitive tumor) and in two of the chemoresistant clones. USP14 overexpression is temporally associated to the expression of the EMT marker vimentin.

[13] = tested on: carboplatin sensitive cancer cells; assay: Multi-step carboplatin chemoresistance model in vitro (Example 2); format: cell-based; conditions: 10 μM, two rounds over two weeks
Method: Multi-step process leading to recurrence can be recapitulated in vitro and results with up-regulation of USP14. Carboplatin chemoresistance was recapitulated in vitro according to the model schematized in FIG. 9. Specifically, carboplatin sensitive cancer cells were exposed to two rounds of carboplatin treatment (10 μM) over the period of two weeks. The first round resulted with approx. 60% of cell death. The second round resulted with approx. 90% of cell death. This is consistent with the dramatic reduction in tumor burden in chemosensitive patients treated with neoadjuvant chemotherapy. […] As shown in FIG. 9 the chemotherapy surviving population was characterized by stem like giant, polyploidy, chemoresistant cells whose numbers remained similar over the course of the following two weeks. This population was the precursor of clones of cells that survived in presence of carboplatin. Strikingly, when the expression levels of USP14 and the […] marker vimentin were evaluated in the initial population (chemosensitive tumor) and in two of the chemoresistant clones isolated. USP14 overexpression is temporally associated to over-expression of the […] marker, vimentin.

[14] = read-out: IC50, inhibition of cell viability
[15] = read-out: IC50 for carboplatin, cell viability
[16] = ECC1, 20 μM, two rounds over two weeks

With `O=C1/C(=C/c2ccc([N+](=O)[O-])cc2)CNC/C1=C\c1ccc([N+](=O)[O-])cc1` [RA-9, (3E, 5E)-3,5-bis(nitrobenzylidene)piperidin-4-one] the “effect on cell viability of chemoresistant ovarian cancer cells” value [1] was “killed chemoresistant ovarian cancer cells” and the Caspase-3 activation (ovarian cancer cells) was “activation of Caspase-3”.

For `C=CC(=O)N1CC/C(=C\c2ccc(F)c([N+](=O)[O-])c2)C(=O)/C(=C/c2ccc(F)c([N+](=O)[O-])c2)C1` [VLX1570], the “anti-proliferative concentration, times lower than that required for carboplatin” value ([2]; HEC155) was 500 times, the IC50 [2, 14] was 0.182 µM and the “anti-proliferative concentration, times lower than that required for carboplatin” value ([3]; ECC1) was 800 times. The IC50 [3, 14] was 0.118 µM, the “inhibition of ubiquitin-dependent protein degradation (dose course)” value ([4]; ECC1, 0-150 μM, 24 hours) was “dose-dependent inhibition of ubiquitin-dependent protein degradation” and the “start of accumulation of poly-ubiquitinated proteins after drug exposure” value ([4]; ECC1, 150 nM) was “two”. For the same compound, the “accumulation of poly-ubiquitinated proteins (time course)” value ([4]; ECC1, 150 nM, 0, 2, 8 or 12 hours) was “dose-dependent accumulation of poly-ubiquitinated proteins”, the “inhibition of ubiquitin-dependent protein degradation (dose course)” value ([5]; HEC155, 0-250 μM, 24 hours) was “dose-dependent inhibition of ubiquitin-dependent protein degradation” and the “start of accumulation of poly-ubiquitinated proteins after drug exposure” value ([5]; HEC155, 250 nM) was “two”. The “accumulation of poly-ubiquitinated proteins (time course)” value ([5]; HEC155, 250 nM, 0, 2, 8 or 12 hours) was “dose-dependent accumulation of poly-ubiquitinated proteins”, the “percentage of cells in the G2/M phase versus controls” value [6] was “increase in the percentage of cells in the G2/M phase” and the “percentage of cells in the G2/M phase, treated versus control” value [7] was “nearly double”. For the same compound, the “Annexin V staining cells” value ([8]; ECC1, 300 nM, 24 hours) was “increase of Annexin V staining cells”, the “fraction of cells taking up propidium iodide” value ([8]; ECC1, 300 nM, 24 hours) was “elevated” and the “levels of active caspase-3” value ([8]; ECC1, 24 hours, versus mock) was “increased levels of active caspase-3”. The “Annexin V staining cells” value ([9]; HEC155, 300 nM, 24 hours) was “increase of Annexin V staining cells”, the “fraction of cells taking up propidium iodide” value ([9]; HEC155, 300 nM, 24 hours) was “elevated” and the “levels of active caspase-3” value ([9]; HEC155, 24 hours, versus mock) was “increased levels of active caspase-3”. The “killing concentration, fold lower than the one required with carboplatin” value ([10]; carboplatin-resistant COV362) was “approx. 10 fold”, the IC50 ([10]; carboplatin-resistant COV362 clones, 48 hours, read-out: IC50, inhibition of cell viability) was 8.76 µM and the “killing concentration, fold lower than the one required with carboplatin” value ([11]; carboplatin-resistant ES-2) was “approx. 10 fold”. For the same compound, the IC50 ([11]; carboplatin-resistant ES-2 clones, 48 hours, read-out: IC50, inhibition of cell viability) was 7.11 µM.

`N.N.O=C([O-])C1(C(=O)[O-])CCC1.[Pt+2]` [carboplatin] was tested, and the IC50 [2, 15] was 77.5 µM, the IC50 [3, 15] was 97.6 µM and the “cell death, first round of carboplatin treatment” value [12, 16] was “approx. 60%”. For the same compound, the “cell death, second round of carboplatin treatment” value [12, 16] was “approx. 90%”, the “IC50 of chemoresistant clones as compared to the initial population” value ([12]; ECC1 chemoresistant clones) was over 3 fold and the “cell death, first round of carboplatin treatment” value [13] was “approx. 60%”. The “cell death, second round of carboplatin treatment” value [13] was “approx. 90%”, the “decrease in carboplatin sensitivity, resistant versus sensitive cells” value ([10]; COV-362, 48 hours exposure) was over 4 fold and the “decrease in carboplatin sensitivity, resistant versus sensitive cells” value ([11]; ES-2, 48 hours exposure) was over 3 fold.

Reference: patent publication US10416163B2, “Method and treatment of recurring endometrial cancer with an inhibitor of USP14” (Regents of the University of Minnesota, priority 2016, dated 2019)
